# Reference: article PMC12396409, “Screening and hit evaluation of a microbial metabolite library against the pathogenic Plasmodium falciparum and Toxoplasma gondii parasites” (International Journal for Parasitology: Drugs and Drug …, 2025)
# Like-named read-outs stand apart in the source and are kept apart here.
# What was measured:
# [1] = tested on: P. falciparum 3D7 parasites; test: P. falciparum growth inhibition assay, 1-cycle (72 h treatment), SYBR DNA staining (library screen at 2 μg/mL and dose-response); type: cell-based, Plasmodium falciparum
# [2] = tested on: P. falciparum 3D7 parasites; test: P. falciparum growth inhibition assay, 2-cycle (120 h treatment), delayed-death screen and dose-response; type: cell-based, Plasmodium falciparum; details: for 2) Growth (%) at 120 h / 3) Fold change (72 h/120 h): P. falciparum, 2 μg/mL; for 3) Fold change (72 h/120 h): growth at 72 h / growth at 120 h
# [3] = Plasmodium falciparum, 3D7, 72 h treatment, mean ± S.D., n ≥ 3, read-out: IC50 (μM), P. falciparum
# [4] = P. falciparum, 72 h, 2 μg/mL, mean of both replicates, growth (% of control)
# [5] = 3D7, 72 h treatment, mean ± S.D., n ≥ 3, read-out: IC50 (μM), P. falciparum
# [6] = 72 h treatment, read-out: IC50, P. falciparum
compound,measurement,setting,value
4-O-methylammocidin,1) Growth (%) at 72 h,"[1]; P. falciparum, 2 μg/mL, 72 h",43.16%
same,2) Growth (%) at 120 h,[2],13.10%
same,3) Fold change (72 h/120 h),[2],3.3
CCCC[C@H](C)[C@@H]1CC(=O)N[C@@H](Cc2ccccc2)C(=O)N[C@@H](C)C(=O)N[C@H]([C@@H](C)CC)C(=O)O1 [Beauveriolide III],IC50,[1]; [3],> 1 µM
CC1=C[C@H]2C(=O)O[C@H]3C[C@@H](C/C=C(\C)C[C@@H](C)/C=C/C=C4\CO[C@H]([C@@H]1O)[C@@]42O)O[C@]1(C3)C[C@H](O)[C@H](C)[C@@H](/C(C)=C/C(C)C)O1 [Nemadectin],1) Growth (%) at 72 h,"[1]; P. falciparum, 2 μg/mL, 72 h",21.98%
same,Mean,[1]; [4],21.98
same,2) Growth (%) at 120 h,[2],11.78%
same,3) Fold change (72 h/120 h),[2],1.9
Oc1cc(O)cc(O)c1 [Phloroglucinol],activity at 2 µg/mL,"[1]; Plasmodium falciparum, 3D7; P. falciparum, 2 μg/mL, 72 h; read-out: 1) Growth (%) at 72 h",51.2%
same,3) Fold change (72 h/120 h),[2],3.9
same,activity at 2 µg/mL,"[2]; Plasmodium falciparum, 3D7; P. falciparum, 2 μg/mL, 120 h; read-out: 2) Growth (%) at 120 h",13.2%
CC[C@H](C)[C@H]1O[C@]2(CC[C@@H]1C)C[C@@H]1C[C@@H](C/C=C(\C)[C@@H](O[C@H]3C[C@H](OC)[C@@H](O)[C@H](C)O3)[C@@H](C)/C=C/C=C3\CO[C@@H]4[C@H](O)C(C)=C[C@@H](C(=O)O1)[C@]34O)O2 [Ivermectin B1a monosaccharide],Mean,[1],49.58
CC[C@H](C)[C@H]1OC(=O)[C@H](Cc2ccccc2)N(C)C(=O)[C@@H](C(C)C)OC(=O)[C@H](Cc2ccccc2)N(C)C(=O)[C@@H](C(C)C)OC(=O)[C@H](Cc2ccccc2)N(C)C1=O [Beauvericin A],IC50,"[1]; Plasmodium falciparum, 3D7, 72 h treatment, read-out: IC50, P. falciparum",0.33 µM
same,IC50,[1]; [3],0.326 ± 0.095 µM
Bischloroanthra-benzoxocinone,Mean,[1]; [4],31.15
"CCO[C@@H]1[C@@H](OC)[C@H](C)O[C@@H](O[C@@H]2C[C@H]3CC[C@@H]4[C@@H](C=C5C(=O)[C@H](C)[C@@H](O)CCC[C@H](CC)OC(=O)C[C@H]54)[C@@H]3C2)[C@@H]1OC [3-Ethoxy-5,6-dihydrospinosyn J pseudoaglycone]",IC50,[1]; [5],> 1 µM
same,Screen (P. falciparum),"[1]; library screen at 2 μg/mL, 3D7, 72 h, DD from the 120 h timepoint",I
"CCO[C@@H]1[C@@H](OC)[C@H](C)O[C@@H](O[C@@H]2C[C@H]3CC[C@@H]4[C@@H](C=C5C(=O)[C@H](C)[C@@H](O[C@H]6CC[C@H](N(C)C)[C@@H](C)O6)CCC[C@H](CC)OC(=O)C[C@H]54)[C@@H]3C2)[C@@H]1OC [3-Ethoxy-5,6-dihydrospinosyn J]",IC50,[1]; [5],0.42 ± 0.22 µM
CCO[C@@H]1[C@@H](OC)[C@H](C)O[C@@H](O[C@H]2C[C@H]3[C@@H]4C=C5C(=O)[C@H](C)[C@@H](O[C@H]6CC[C@H](N(C)C)[C@@H](C)O6)CCC[C@H](CC)OC(=O)C[C@H]5[C@@H]4C=C(C)[C@@H]3C2)[C@@H]1OC [3-Ethoxyspinosyn L],IC50,[1]; [5],0.57 ± 0.28 µM
Thiocillin III,IC50,[1]; [5],0.11 ± 0.006 µM
same,IC50,[1]; [6],< 0.2 µM
CC[C@H]1CCC[C@H](O)[C@@H](C)C(=O)C2=C[C@@H]3[C@@H](C=C(C)[C@@H]4C[C@@H](O[C@@H]5O[C@@H](C)[C@H](OC)[C@@H](OC)[C@H]5OC)C[C@@H]34)[C@@H]2CC(=O)O1 [Spinosyn D pseudoaglycone],IC50,[1]; [5],> 1 µM
CC1=C[C@H]2[C@H](O)[C@H](O)CC[C@H]2[C@@](C)(C(O)=C2C(=O)CNC2=O)[C@@H]1CCC(C)C(O)/C(C)=C/CC(O)/C=C/C(C)C(O)/C=C/CC(O)/C(C)=C/CC(O)CC1CCCN1C(=N)N (stereo partly drawn) [Lydicamycin],Mean,[1]; [4],36.70
CCO[C@@H]1[C@@H](OC)[C@H](C)O[C@@H](O[C@H]2C[C@H]3[C@@H]4C=C5C(=O)[C@H](C)[C@@H](O)CCC[C@H](CC)OC(=O)C[C@H]5[C@@H]4C=C(C)[C@@H]3C2)[C@@H]1OC [3-Ethoxyspinosyn L pseudoaglycone],IC50,[1]; [5],> 1 µM
C/C=C(/NC(=O)c1csc(-c2csc(-c3ccc4c(n3)-c3csc(n3)C(C(C)OC)NC(=O)c3csc(n3)C(C(C)(C)O)NC(=O)c3csc(n3)/C(=C\C)NC(=O)C(C(C)O)NC(=O)c3csc-4n3)n2)n1)C(=O)NCC(C)O (stereo not drawn) [Thiocillin II],IC50,[1]; [5],0.161 ± 0.038 µM
same,IC50,[1]; [6],< 0.2 µM
Ikarugamycin,Mean,[1]; [4],48.31
